Assay results reported in patent publication US9763980B2, “Combined chemical modification of sphingosine-1-phosphate (S1P) and CXCR4 signalling pathways for hematopoietic stem cell (HSC) mobilization and engraftment” (Children's Medical Center Corporation, priority 2011, dated 2017).

Key:
[1] = test system: ischemia-reperfusion injury; settings: mouse model for ischemia-reperfusion injury; cited from earlier work
[2] = test system: brain inflammatory reaction following traumatic brain injury (TBI); settings: rat model for brain inflammatory reaction following traumatic brain injury (TBI); cited from earlier work
[3] = clinical trials; due to agonism of the S1P3 receptor; cited from earlier work
acute viral myocarditis = settings: mouse model for acute viral myocarditis; cited from earlier work
multiple sclerosis = settings: cited from earlier work
peripheral lymphocyte = settings: in vivo; cited from earlier work
autoimmune uveitis = settings: rat model for autoimmune uveitis; cited from earlier work
autoimmune myocarditis = settings: rat model for autoimmune myocarditis; cited from earlier work
[4] = test system: progressive mesangioproliferative glomerulonephritis; settings: rat model for progressive mesangioproliferative glomerulonephritis; cited from earlier work
[5] = test system: airway inflammation and induction of bronchial hyperresponsiveness; settings: mouse model for airway inflammation and induction of bronchial hyperresponsiveness; cited from earlier work
HSC = settings: Massberg et al.; cited from earlier work
atherosclerosis = settings: mouse models for atherosclerosis; cited from earlier work
asthma = settings: mouse model for asthma; cited from earlier work
[6] = test system: inflammatory bowel disease including colitis; settings: mouse models for inflammatory bowel disease including colitis; cited from earlier work
[7] = test system: CHT hematopoiesis (HSPC markers cmyb and runx1 in the CHT); assay: Zebrafish embryo chemical treatment and dose matrices, whole mount in situ hybridization of cmyb/runx1 in the CHT; type: in vivo
Method: Transgenic zebrafish embryos were intercrossed and selected using epifluorescence (e.g. Runx1+23:EGFP, cmyb:EGFP^4, cd41:EGFP^2, kdrl:DsRed2^31). Live imaging was performed using a spinning disk confocal microscope with an incubated chamber. Zebrafish embryos were mounted and imaged as previously described. Live mouse fetal liver explants were prepared as previously described for aorta-gonad-mesonephros tissue^10. Image processing was done primarily with Fluorender^32 and ImageJ, which included the MTrackJ plugin^33 for manual cell tracking. For chemical screening and dose matrices, stage-matched AB embryos were dechorionated and arrayed 8-10/well in 96-well mesh-bottomed plates (Millipore). Embryos were treated from 48-72 hpf by placement directly in 96-well receiver plates containing small molecules diluted in E3 media+1% DMSO. Embryos were checked for circulation before fixation. Whole mount in situ hybridization was performed as previously described^34, with the addition of 0.2% glutaraldehyde to 4% formaldehyde at the post-fixation step. […] Lineage tracing was performed by injecting cd41:EGFP positive embryos with caged fluorescein conjugated to dextran (MW 10000). Embryos were uncaged in the DA at 28 hpf with a UV laser. Embryos were raised to 46 hpf in E3 media or E3+S1PR1 antagonist W146 (10 μM), then fixed for antibody staining to detect double positive cd41:EGFP and uncaged FITC HSPCs. Receptor fusion cDNAs (25 pg) were injected into one-cell embryos with Tol2 RNA (15 pg). Flow cytometry was performed using a LSR II and cells were sorted using a FACSAria (BD Biosciences). Flow cytometry data was analyzed using FACSDiva and FlowJo software.
Having followed newly born aortic HSPCs to the intermediate tissue, the inventors assessed the signaling pathways involved in embryonic migration. The inventors designed a chemical genetic screen to introduce small molecules to the zebrafish embryo from the peak window of HSPC migration to the CHT (48-72 hpf).

rheumatoid arthritis = settings: rat models for rheumatoid arthritis; cited from earlier work
[8] = test system: systemic lupus erythematosus (SLE); settings: mouse model for systemic lupus erythematosus (SLE); cited from earlier work
[9] = test system: graft coronary artery disease and graft-versus-host disease (GVHD); settings: mouse models for graft coronary artery disease and graft-versus-host disease (GVHD); cited from earlier work
[10] = test system: experimental autoimmune encephalomyelitis (EAE); settings: EAE in rats, a model for human multiple sclerosis; cited from earlier work
atopic dermatitis = settings: mouse model for atopic dermatitis; cited from earlier work
[11] = Phase II clinical trials, relapsing-remitting multiple sclerosis

In the case of `CCCCCCCCc1ccc(CCC(N)(CO)CO)cc1` [FTY720, 2-amino-2-[2-(4-octylphenyl)ethyl]propane-1,3-diol], the therapeutic efficacy [1] is given as “therapeutic efficacy”, the therapeutic efficacy [2] is given as “therapeutic efficacy” and the adverse event [3] is given as “transient asymptomatic bradycardia”. The therapeutic efficacy (acute viral myocarditis) was “therapeutic efficacy”, the clinical disease activity (multiple sclerosis; [11]) was “reduce” and the “number of lesions detected by magnetic resonance imaging (MRI)” value (multiple sclerosis; [11]) was “reduce”. The therapeutic efficacy (multiple sclerosis; multiple sclerosis, clinical trials) was “therapeutic efficacy”, the “lymphopenia (peripheral lymphocyte lowering)” value (peripheral lymphocyte) was “rapidly and reversibly induce lymphopenia” and the therapeutic efficacy (autoimmune uveitis) was “therapeutic efficacy”. The therapeutic efficacy (autoimmune myocarditis) was “therapeutic efficacy”, the therapeutic efficacy [4] was “therapeutic efficacy” and the therapeutic efficacy [5] was “therapeutic efficacy”. The “HSC egress from tissues” value (HSC) was “blocked”, the therapeutic efficacy (atherosclerosis) was “therapeutic efficacy” and the therapeutic efficacy (asthma) was “therapeutic efficacy”. For the same compound, the therapeutic efficacy [6] was “therapeutic efficacy”, the “CHT score (greatest engraftment in dose matrix)” value ([7]; 15 μM AMD3100 and 5 μM FTY720) was “+2” and the HSC engraftment ([7]; 3:1 ratio of FTY720:AMD3100) was “promote and enhance HSC engraftment”. For the same compound, the “migration of HSC from the bone marrow” value ([7]; 5:1 ratio of FTY720:AMD3100) was “promote migration of HSC”, the “cmyb/runx1 expression in the CHT” value ([7]; FTY720 5 μM alone, treatment from 48 hpf, 72 hpf embryos) was “little effect” and the CHT hematopoiesis ([7]; FTY720 (5μM) combined with AMD3100 (15μM)) was “increase”. The CHT hematopoiesis ([7]; FTY720 with increased AMD3100 dose) was “greatly reduced”, the CHT hematopoiesis ([7]; combination of FTY720 and AMD3100 at specific combined doses (interaction matrix)) was “increased” and the “Experimental data: concentration of S1PR1 modulating agent in the combination effective at increasing HSC engraftment” value ([7]; combination with AMD3100) was 5 µM. For the same compound, the “Experimental data: concentration of S1PR1 modulating agent in the combination effective at increasing HSC mobilization” value ([7]; combination with AMD3100) was 5 μM FTY720, the “mobilization of HSC from the bone marrow in vivo” value ([7]; combination with AMD3100 in specific ratios) was “improves mobilization” and the CHT hematopoiesis ([7]; dose matrices, agent combined with AMD3100) was “synergistic increases”. The CHT hematopoiesis ([7]; each agent alone at the doses of the effective FTY720/AMD3100 combination) was “no effect”, the therapeutic efficacy (rheumatoid arthritis) was “therapeutic efficacy” and the therapeutic efficacy [8] was “therapeutic efficacy”. For the same compound, the therapeutic efficacy [9] was “therapeutic efficacy”, the therapeutic efficacy [10] was “therapeutic efficacy” and the therapeutic efficacy (atopic dermatitis) was “therapeutic efficacy”.
